Laboratory results published in US20210393857A1, “SMALL MOLECULE DRUGS AND METHODS TO ACCELERATE OSSEOINTEGRATION” (The Regents of the University of California, priority 2018, published 2021).
Structures can show the parent of a compound that is named as a salt. Marks after values point to notes of the source that are not given here.

Columns and labels:
[1] = tested on: adenosine A1 and A2 receptors; conditions: selectivity A1 over A2; cited from earlier work
[2] = tested on: I1 imidazoline receptor; conditions: comparison within marsanidine, 7-Me-, 7-Cl-, 7-F-marsanidine; cited from earlier work
[3] = tested on: α2-adrenoreceptors; conditions: comparison within marsanidine, 7-Me-, 7-Cl-, 7-F-marsanidine; cited from earlier work
[4] = tested on: Npas2-LacZ expression of mouse BMSC; assay: High throughput screening of LOPAC 1280 compounds for Npas2-LacZ expression (Beta-Glo β-galactosidase assay); type: cell-based; conditions: compound 1 μM, 48 hours, BMSC from Npas2−/− mice carrying LacZ reporter
Method: Femur BMSC harvested from Npas2−/− mice were previously characterized for LacZ expression, which was used in this study for high throughput, unbiased screening of Library of Pharmacologically Active Compounds (LOPAC®^1280). (Hassan, N., et al., (2017) PLoS One 12, e0183359). Using 384-well plates, each well was filled with 25 μl non-phenol red DMEM containing 10% FBS and 1% PS, and added 50 nL of LOPAC®^1280 compound (final concentration: 1 μM) using 500 nL pin tool (Biomek FX, Beckman Coulter, Indianapolis, Ind.). To each well, BMSC (Npas2-LacZ) were placed as 1500 cells/25 μl suspension and incubated at room temperature for 1 hour, followed by incubation at 37° C. and 5% CO2 for 48 hours. To measure Npas2-LacZ expression, β-galactosidase activity was measured using a commercially available assay (Beta-Glo Assay System, Promega, Summerville, Calif.).
The Npas2-LacZ expression data were uploaded on an online data analysis tool (CDD Vault, Collaborative Drug Discovery, Inc, Burlingame, Calif.), on which data were normalized and Z-factor was calculated. For this study, hit compounds were selected as Z-score >2.5 or <−2.5.

[5] = tested on: implant osseointegration in mouse femur; assay: Implant push-out test of Ti implants placed in mouse femur; type: in vivo; conditions: 75 mg/Kg daily IP for 2 weeks, machined or B-DAE-DCD surface implants, vs vehicle 0.9% NaCl
From the text: Male 10˜15-wk-old C57Bl/6J mice underwent surgical placement of Ti implants. After anesthesia with isoflurane inhalation, the distal femur was accessed via medial parapatellar arthrotomy with lateral displacement of the quadriceps-patellar complex. After locating the femoral intercondylar notch, the femoral intramedullary canal was manually reamed with a 25-gauge needle for entry into the canal and further reamed with a 23-gauge needle. A Ti implant was inserted in a retrograde fashion into each femur of a mouse. The Ti implant was clipped at 4 mm and further inserted 4 mm using a periodontal probe. The quadriceps-patellar complex was reduced to its anatomic position, and the surgical site was closed using Vicryl 5-0 sutures. Carprofen (5.0 mg/kg) (Rimadyl, Zoetis US, Parsippany, N.J.) was administered subcutaneously at the time of surgery and every 24 hours for 2 days after surgery.
Mice were euthanized and femur bones were harvested at the predetermined healing time. […] The mechanical withholding strength was measured by pushing the implant out from the femur bone marrow using a custom-made stainless-steel pushing rod mounted on a 1000-N load cell (Instron, Canton, Mass.). The axial load on the implant was applied at a cross-head speed of 1 mm/min, and displacement of the implant and the load were recorded. […]

**Q.** For CCCn1c(=O)c2[nH]c(-c3ccccc3)nc2n(CCC)c1=O [1,3-dipropyl-8-phenylxanthine], which “fold more potent at A1 receptors than at A2 receptors” value [1] is on record?
**A.** about 23 fold

**Q.** With Cc1cccc2cnn(N=C3NCCN3)c12 [7-Me-marsanidine] as the compound, how does the “affinity for the I1 imidazoline receptor (rank among marsanidine analogs)” value [2] read?
**A.** highest affinity for the I1 imidazoline receptor

**Q.** What about the “affinity for α2-adrenoreceptors (rank among marsanidine analogs)” value [3] of the same compound?
**A.** low affinity for α2-adrenoreceptors

**Q.** Which “% Activity (activity against negative controls in LOPAC 1280 screening)” value (“% Activity” below) [4] does the source give for Cn1c(=O)c2[nH]c(-c3ccc(S(=O)(=O)O)cc3)nc2n(C)c1=O [8-(p-Sulfophenyl)-theophylline, 8-(p-sulfophenyl) theophylline] here?
**A.** 104.0%

**Q.** Which results are given for C[C@](N)(Cc1ccc(O)c(O)c1)C(=O)O [Methyldopa (L, −), L-α-Methyl-3,4-dihydroxyphenylalanine]?
**A.** % Activity (activity against negative controls in LOPAC 1280 screening) [4]: 18.1%; implant push-out value [5]: greater push-out value than vehicle treated control mice

**Q.** Which “% Activity” value [4] does the source give for Cc1nccc2c1[nH]c1ccccc12 [Harmane (MS-1500866), 1-Methyl-9H-pyrido[3,4-b]indole] here?
**A.** −15.6** %

**Q.** For CC[C@@H](CO)NC(=O)[C@@H]1C=C2c3cccc4c3c(cn4C)C[C@H]2N(C)C1 [Methysergide maleate, 1-methyl-D-lysergic acid butanolamide], which “% Activity” value [4] is on record?
**A.** 28.6%

**Q.** What does the source list for Fc1cccc2cnn(N=C3NCCN3)c12 [7-F-marsanidine]?
**A.** affinity for the I1 imidazoline receptor (rank among marsanidine analogs) [2]: higher affinity for the I1 imidazoline receptor than 7-Cl-marsanidine; affinity for α2-adrenoreceptors (rank among marsanidine analogs) [3]: comparable affinity for α2-adrenoreceptors

**Q.** For O=C1CCc2cc(OCCCCc3nnnn3C3CCCCC3)ccc2N1 [Cilostazol (MS-1505230), 6-[4-(1-cyclohexyl-1H-tetrazol-5-yl)-butoxy]-3,4-dihydro-2(1H)-quinolinone], which “% Activity” value [4] is on record?
**A.** 26.2%

**Q.** Which results are given for Clc1cccc2cnn(N=C3NCCN3)c12 [7-Cl-marsanidine]?
**A.** affinity for the I1 imidazoline receptor (rank among marsanidine analogs) [2]: lower affinity for the I1 imidazoline receptor; affinity for α2-adrenoreceptors (rank among marsanidine analogs) [3]: higher affinity for α2-adrenoreceptors

**Q.** With c1ccc2c(c1)cnn2N=C1NCCN1 [marsanidine] as the compound, how does the “affinity for the I1 imidazoline receptor (rank among marsanidine analogs)” value [2] read?
**A.** lowest affinity for the I1 imidazoline receptor

**Q.** And the “affinity for α2-adrenoreceptors (rank among marsanidine analogs)” value [3]?
**A.** highest affinity for α2-adrenoreceptors

**Q.** Which “% Activity” value [4] does the source give for O=c1ccc2c(OCCCCc3ccccc3)c3ccoc3cc2o1 [Psora-4, 5-(4-phenylbutoxy)psoralen] here?
**A.** 35.3%

**Q.** For CCCn1c(=O)c2[nH]c(-c3ccc(Cl)cc3N)nc2n(CCC)c1=O [8-(2-amino-4-chlorophenyl)-1,3-dipropylxanthine], which “fold more potent at A1 receptors than at A2 receptors” value [1] is on record?
**A.** ~400 fold
